Assay results: patent US9592221B2, “Antibacterial agents: aryl myxopyronin derivatives” (priority 2012, dated 2017)
pIC50: −log10 of the molar value.

Experiments:
[1] = system: Yersinia pestis C092; test: microbe, parasite or virus in culture; type: cell-based; conditions: Yersinia pestis, C092, read-out: MIC Y. pestis C092
[2] = system: Burkholderia mallei CHN7; test: microbe, parasite or virus in culture; type: cell-based; conditions: Burkholderia mallei, CHN7, read-out: MIC B. mallei CHN7
[3] = system: Bacillus anthracis Vollum 1b; test: microbe, parasite or virus in culture; type: cell-based; conditions: Bacillus anthracis, VOLLUM1B, read-out: MIC B. anthracis Vollum-1b
[4] = system: Francisella tularensis SCHU4; test: microbe, parasite or virus in culture; type: cell-based; conditions: Francisella tularensis, SCHU4, read-out: MIC F. tularensis SCHU4
[5] = system: Brucella melitensis 16M; test: microbe, parasite or virus in culture; type: cell-based; conditions: Brucella melitensis, 16M, read-out: MIC B. melitensis 16M
[6] = biological target: E. coli RNA polymerase σ^70 holoenzyme (Escherichia coli, UniProt P0A8T7+P0A8V2); test: Fluorescence-detected RNA polymerase assay, E. coli RNA polymerase; type: biochemical; conditions: read-out: IC50 E. coli RNAP
Chain of E. coli RNA polymerase σ^70 holoenzyme (P0A8T7 whole entry): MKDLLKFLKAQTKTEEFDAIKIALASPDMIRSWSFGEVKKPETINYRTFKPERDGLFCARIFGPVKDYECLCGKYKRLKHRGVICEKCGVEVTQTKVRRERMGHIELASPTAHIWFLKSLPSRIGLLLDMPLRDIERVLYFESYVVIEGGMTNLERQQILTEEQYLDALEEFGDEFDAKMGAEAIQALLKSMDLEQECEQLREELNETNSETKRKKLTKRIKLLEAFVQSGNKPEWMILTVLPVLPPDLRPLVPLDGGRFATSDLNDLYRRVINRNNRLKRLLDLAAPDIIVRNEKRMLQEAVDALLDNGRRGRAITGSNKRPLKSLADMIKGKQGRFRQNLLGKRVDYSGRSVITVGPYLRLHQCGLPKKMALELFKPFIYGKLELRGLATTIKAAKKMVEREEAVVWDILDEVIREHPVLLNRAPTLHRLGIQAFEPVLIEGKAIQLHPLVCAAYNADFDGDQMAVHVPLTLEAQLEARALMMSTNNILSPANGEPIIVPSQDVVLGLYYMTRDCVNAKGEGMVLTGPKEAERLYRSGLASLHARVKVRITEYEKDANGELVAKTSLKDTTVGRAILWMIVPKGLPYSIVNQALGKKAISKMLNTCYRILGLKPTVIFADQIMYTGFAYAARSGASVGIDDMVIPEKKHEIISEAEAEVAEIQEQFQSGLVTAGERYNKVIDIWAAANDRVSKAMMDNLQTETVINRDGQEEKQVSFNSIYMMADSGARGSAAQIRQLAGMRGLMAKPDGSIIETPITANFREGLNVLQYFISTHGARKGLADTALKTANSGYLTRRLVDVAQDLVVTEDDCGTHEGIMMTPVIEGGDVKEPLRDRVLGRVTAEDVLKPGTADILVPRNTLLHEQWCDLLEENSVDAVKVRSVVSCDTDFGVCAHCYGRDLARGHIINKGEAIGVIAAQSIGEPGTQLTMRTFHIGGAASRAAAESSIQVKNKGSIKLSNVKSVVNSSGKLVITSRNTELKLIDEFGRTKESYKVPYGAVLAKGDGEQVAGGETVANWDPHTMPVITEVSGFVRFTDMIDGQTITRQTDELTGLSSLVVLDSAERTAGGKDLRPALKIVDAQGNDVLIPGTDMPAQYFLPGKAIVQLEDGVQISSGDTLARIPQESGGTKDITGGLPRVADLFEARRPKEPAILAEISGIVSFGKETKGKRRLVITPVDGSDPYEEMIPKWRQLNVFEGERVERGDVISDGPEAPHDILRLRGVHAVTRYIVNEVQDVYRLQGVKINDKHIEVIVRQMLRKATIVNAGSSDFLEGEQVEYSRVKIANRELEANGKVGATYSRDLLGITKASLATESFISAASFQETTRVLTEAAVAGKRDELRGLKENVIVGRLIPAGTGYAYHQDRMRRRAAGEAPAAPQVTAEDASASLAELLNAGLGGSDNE
Chain of E. coli RNA polymerase σ^70 holoenzyme (P0A800 whole entry, further chain): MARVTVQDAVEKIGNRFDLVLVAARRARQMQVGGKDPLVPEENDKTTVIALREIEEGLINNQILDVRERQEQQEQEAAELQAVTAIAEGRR
Chain of E. coli RNA polymerase σ^70 holoenzyme (P0A8V2 whole entry): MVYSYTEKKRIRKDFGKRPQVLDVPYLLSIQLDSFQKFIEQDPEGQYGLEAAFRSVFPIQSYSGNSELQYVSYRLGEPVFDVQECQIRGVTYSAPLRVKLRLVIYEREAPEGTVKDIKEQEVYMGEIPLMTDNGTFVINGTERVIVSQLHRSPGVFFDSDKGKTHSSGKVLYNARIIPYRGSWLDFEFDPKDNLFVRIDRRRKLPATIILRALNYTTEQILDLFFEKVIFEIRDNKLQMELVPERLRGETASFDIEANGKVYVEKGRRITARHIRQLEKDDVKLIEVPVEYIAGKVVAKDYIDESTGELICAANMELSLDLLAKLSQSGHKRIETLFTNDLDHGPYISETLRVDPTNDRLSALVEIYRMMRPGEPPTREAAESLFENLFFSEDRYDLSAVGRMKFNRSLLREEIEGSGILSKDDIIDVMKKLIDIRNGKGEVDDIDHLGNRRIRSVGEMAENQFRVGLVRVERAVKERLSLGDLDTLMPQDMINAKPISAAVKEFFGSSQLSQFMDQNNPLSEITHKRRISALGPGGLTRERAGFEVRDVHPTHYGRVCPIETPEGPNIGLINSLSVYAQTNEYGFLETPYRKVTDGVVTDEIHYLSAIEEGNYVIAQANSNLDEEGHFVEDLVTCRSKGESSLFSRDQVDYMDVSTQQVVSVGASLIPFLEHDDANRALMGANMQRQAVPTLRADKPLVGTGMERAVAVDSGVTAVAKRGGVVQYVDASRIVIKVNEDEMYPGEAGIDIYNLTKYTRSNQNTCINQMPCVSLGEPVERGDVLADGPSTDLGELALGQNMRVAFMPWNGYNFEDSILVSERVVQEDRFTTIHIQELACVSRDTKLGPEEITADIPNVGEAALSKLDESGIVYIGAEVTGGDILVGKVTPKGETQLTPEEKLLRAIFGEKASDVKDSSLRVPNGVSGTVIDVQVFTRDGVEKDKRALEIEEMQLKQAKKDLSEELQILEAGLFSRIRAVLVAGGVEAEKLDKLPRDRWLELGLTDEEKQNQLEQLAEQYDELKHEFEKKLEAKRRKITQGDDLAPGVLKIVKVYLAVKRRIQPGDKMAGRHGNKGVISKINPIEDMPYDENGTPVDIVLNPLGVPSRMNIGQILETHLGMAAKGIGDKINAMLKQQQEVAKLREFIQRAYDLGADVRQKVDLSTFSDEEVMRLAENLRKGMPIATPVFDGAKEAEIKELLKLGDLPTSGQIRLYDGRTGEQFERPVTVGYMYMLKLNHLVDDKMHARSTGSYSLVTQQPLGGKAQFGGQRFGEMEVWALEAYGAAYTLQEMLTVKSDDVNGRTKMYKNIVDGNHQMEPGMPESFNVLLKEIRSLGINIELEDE
Chain of E. coli RNA polymerase σ^70 holoenzyme (P00579 whole entry, further chain): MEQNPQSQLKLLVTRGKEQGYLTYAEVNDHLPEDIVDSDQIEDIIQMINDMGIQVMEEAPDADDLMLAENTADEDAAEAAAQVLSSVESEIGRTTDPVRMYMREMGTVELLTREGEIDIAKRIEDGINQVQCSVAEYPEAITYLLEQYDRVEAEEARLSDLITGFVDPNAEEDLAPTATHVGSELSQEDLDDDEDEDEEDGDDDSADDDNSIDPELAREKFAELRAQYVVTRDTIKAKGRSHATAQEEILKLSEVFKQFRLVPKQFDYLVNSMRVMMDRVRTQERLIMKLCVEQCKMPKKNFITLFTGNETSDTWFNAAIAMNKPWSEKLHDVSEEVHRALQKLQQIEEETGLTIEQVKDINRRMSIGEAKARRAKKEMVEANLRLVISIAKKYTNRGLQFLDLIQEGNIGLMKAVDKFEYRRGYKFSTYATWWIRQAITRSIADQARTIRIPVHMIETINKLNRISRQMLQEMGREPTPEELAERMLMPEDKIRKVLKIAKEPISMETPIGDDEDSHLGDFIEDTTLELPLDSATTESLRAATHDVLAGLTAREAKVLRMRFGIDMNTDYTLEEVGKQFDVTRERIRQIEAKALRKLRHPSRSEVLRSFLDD
Chain of E. coli RNA polymerase σ^70 holoenzyme (P0A7Z4 whole entry, further chain): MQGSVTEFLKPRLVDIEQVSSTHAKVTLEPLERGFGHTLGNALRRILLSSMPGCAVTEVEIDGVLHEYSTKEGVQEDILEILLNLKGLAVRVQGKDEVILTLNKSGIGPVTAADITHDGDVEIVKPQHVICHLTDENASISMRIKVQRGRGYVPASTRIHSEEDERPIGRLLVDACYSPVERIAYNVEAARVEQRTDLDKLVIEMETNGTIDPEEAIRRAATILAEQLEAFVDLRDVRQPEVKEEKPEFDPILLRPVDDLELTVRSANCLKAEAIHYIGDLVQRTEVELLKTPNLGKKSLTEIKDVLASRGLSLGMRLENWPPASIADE

[7] = system: Mycobacterium tuberculosis H37Rv; test: MIC, microplate Alamar Blue assay, M. tuberculosis; type: cell-based
[8] = system: Burkholderia pseudomallei Human/Blood/OH/US/1994; test: microbe, parasite or virus in culture; type: cell-based; conditions: Burkholderia pseudomallei, read-out: MIC B. pseudomallei Human/Blood/OH
[9] = system: Staphylococcus aureus ATCC 12600; test: MIC, spiral gradient endpoint assay, S. aureus ATCC 12600; type: cell-based; conditions: ATCC12600; Staphylococcus aureus ATCC 12600
[10] = system: Acinetobacter baumannii ATCC 19606; test: MIC, spiral gradient endpoint assay, A. baumannii; type: cell-based; conditions: ATCC19606; Acinetobacter baumannii ATCC 19606
[11] = system: Escherichia coli D21f2tolC; test: MIC, spiral gradient endpoint assay, E. coli D21f2tolC; type: cell-based; conditions: Escherichia coli, D21F2TOLC, read-out: MIC E. coli D21f2toIC

Row | SMILES | MIC [1] [µg/mL] | MIC [2] [µg/mL] | MIC [3] [µg/mL] | MIC [4] [µg/mL] | MIC [5] [µg/mL] | pIC50 [6] | MIC [7] [µg/mL] | MIC [8] [µg/mL] | MIC [9] [µg/mL] | MIC [10] [µg/mL] | MIC [11] [µg/mL]
1 | COC(=O)N/C=C/CCC(C)c1cc(O)c(C(=O)C(C)=Cc2ccc(OCCC(C)(C)C)cc2)c(=O)o1 (mixture of isomers) [APY48, methyl (E)-5-(3-((E/Z)-3-(4-(3,3-dimethylbutoxy)phenyl)-2-methylacryloyl)-4-hydroxy-2-oxo-2H-pyran-6-yl)hex-1-enylcarbamate] | > 50 | 50 | 6 | 10 | 6 | 6.05 | 10 | > 50 | 10 | – | –
2 | CCCCCc1ccc(C=C(C)C(=O)c2c(O)cc(C(C)CC/C=C/NC(=O)OC)oc2=O)s1 (mixture of isomers) [APY59, methyl (E)-5-(4-hydroxy-5-((E/Z)-2-methyl-3-(5-pentylthiophen-2-yl)acryloyl)-6-oxo-6H-pyran-2-yl)hex-1-enylcarbamate] | – | 6 | 2 | 10 | 6 | 8.00 | 30 | 10 | 0.3 | 7 | 0.2
3 | CCc1ccc(C=C(C)C(=O)c2c(O)cc(C(C)CC/C=C/NC(=O)OC)oc2=O)s1 (mixture of isomers) [APY64, methyl (E)-5-(5-((E/Z)-3-(5-ethylthiophen-2-yl)-2-methylacryloyl)-4-hydroxy-6-oxo-6H-pyran-2-yl)hex-1-enylcarbamate] | – | > 50 | 50 | 50 | 10 | 6.70 | 30 | > 50 | 9 | > 40 | 0.8
4 | CCCCc1ccc(C=C(C)C(=O)c2c(O)cc(C(C)CCCCNC(=O)OC)oc2=O)s1 (mixture of isomers) [APY67, methyl 5-(5-((E/Z)-3-(5-butylthiophen-2-yl)-2-methylacryloyl)-4-hydroxy-6-oxo-6H-pyran-2-yl)hexylcarbamate] | – | > 50 | 30 | 50 | 10 | 6.00 | 50 | > 50 | 5 | > 40 | 0.5
5 | CCc1ccc(C=C(C)C(=O)c2c(O)cc(C(C)CC/C=C/NC(=O)OC)oc2=O)cc1 (mixture of isomers) [APY70, methyl (E)-5-(5-((E/Z)-3-(4-ethylphenyl)-2-methylacryloyl)-4-hydroxy-6-oxo-6H-pyran-2-yl)hex-1-enylcarbamate] | – | > 50 | 50 | > 50 | 30 | < 5.22 | 30 | > 50 | 20 | > 40 | 1
6 | COC(=O)N/C=C/CCC(C)c1cc(O)c(C(=O)C(C)=Cc2ccc(CCC(F)(F)F)cc2)c(=O)o1 (mixture of isomers) [APY74, methyl (E)-5-(5-((E/Z)-3-(4-(3,3,3-trifluoropropyl)phenyl)-2-methylacryloyl)-4-hydroxy-6-oxo-6H-pyran-2-yl)hex-1-enylcarbamate] | – | > 50 | 10 | 50 | 10 | 7.40 | 10 | > 50 | 2 | > 40 | 0.2
7 | COC(=O)N/C=C/CCC(C)c1cc(O)c(C(=O)C(C)=Cc2ccc(CCCCCC(F)(F)F)s2)c(=O)o1 (mixture of isomers) [APY82, methyl ((1E)-5-(4-hydroxy-3-(2-methyl-3-(5-(6,6,6-trifluorohexyl)thiophen-2-yl)acryloyl)-2-oxo-2H-pyran-6-yl)hex-1-en-1-yl)carbamate] | – | 6 | 3 | 10 | 2 | 8.30 | > 50 | 6 | 10 | 20 | 0.07
